Active and inactive are the calls of the source. How the calls were made is not given here.

This data set concerns CCRIS mutagenicity, Ames/micronucleus/aberration tests. In words: CCRIS mutagenicity studies.
The mark [1] stands for this setting: Test System: AMES SALMONELLA TYPHIMURIUM, Strain/Indicator: TA98, Metabolic Activation: NONE, Method: PREINCUBATION
Setting [2] is: Test System: AMES SALMONELLA TYPHIMURIUM, Strain/Indicator: TA100, Metabolic Activation: NONE, Method: PREINCUBATION

Turning to `ClC(Cl)Cl`, the mutagenic call (Test System: AMES SALMONELLA TYPHIMURIUM, Strain/Indicator: RSJ100, Metabolic Activation: NONE, Method: PREINCUBATION) is “inactive; negative”; the mutagenic call (Test System: AMES SALMONELLA TYPHIMURIUM, Strain/Indicator: RSJ100, Metabolic Activation: RAT LIVER S-9, Method: PREINCUBATION) is “inactive; negative”; the mutagenic call under setting [1] is “inactive; negative”; the mutagenic call (Test System: AMES SALMONELLA TYPHIMURIUM, Strain/Indicator: TA98, Metabolic Activation: NONE, Method: STANDARD PLATE) is “active; positive”; the mutagenic call (Test System: AMES SALMONELLA TYPHIMURIUM, Strain/Indicator: TA98, Metabolic Activation: RAT LIVER S-9, Method: PREINCUBATION) is “inactive; negative”; the mutagenic call (Test System: AMES SALMONELLA TYPHIMURIUM, Strain/Indicator: TA98, Metabolic Activation: RAT, LIVER, S-9, AROCLOR 1254, Method: STANDARD PLATE) was “active; positive”. Moreover, the mutagenic call (Test System: AMES SALMONELLA TYPHIMURIUM, Strain/Indicator: TA100, Metabolic Activation: NONE, Method: FLUCTUATION TEST) was “inactive; negative”; the mutagenic call under setting [2] is “inactive; negative”; the mutagenic call (Test System: AMES SALMONELLA TYPHIMURIUM, Strain/Indicator: TA100, Metabolic Activation: NONE, Method: STANDARD PLATE) is “active; positive”; the mutagenic call (Test System: AMES SALMONELLA TYPHIMURIUM, Strain/Indicator: TA100, Metabolic Activation: RAT LIVER S-9, Method: PREINCUBATION) was “inactive; negative”; the mutagenic call (Test System: AMES SALMONELLA TYPHIMURIUM, Strain/Indicator: TA100, Metabolic Activation: RAT, LIVER, S-9, AROCLOR 1254, Method: FLUCTUATION TEST) was “inactive; negative”; the mutagenic call (Test System: AMES SALMONELLA TYPHIMURIUM, Strain/Indicator: TA100, Metabolic Activation: RAT, LIVER, S-9, AROCLOR 1254, Method: STANDARD PLATE) is “active; positive”. In addition, the mutagenic call is “inactive; negative” (Test System: AMES SALMONELLA TYPHIMURIUM, Strain/Indicator: TA1535 (GST-), Metabolic Activation: NONE, Method: STANDARD PLATE); “active; positive” (Test System: AMES SALMONELLA TYPHIMURIUM, Strain/Indicator: TA1535, Metabolic Activation: RAT, LIVER, S-9, AROCLOR 1254, Method: STANDARD PLATE); “active; positive” (Test System: AMES SALMONELLA TYPHIMURIUM, Strain/Indicator: TA1537, Metabolic Activation: NONE, Method: STANDARD PLATE); “active; positive” (Test System: AMES SALMONELLA TYPHIMURIUM, Strain/Indicator: TA1537, Metabolic Activation: RAT, LIVER, S-9, AROCLOR 1254, Method: STANDARD PLATE); “inactive; negative” (Test System: Ames Salmonella typhimurium, Strain/Indicator: TA98, Metabolic Activation: None, Method: Gas exposure method); “inactive; negative” (Test System: Ames Salmonella typhimurium, Strain/Indicator: TA98, Metabolic Activation: Rat, Liver, S9, Sodium phenobarbital and 5,6-benzoflavone (10%), Method: Gas exposure method). Moreover, the mutagenic call (Test System: Ames Salmonella typhimurium, Strain/Indicator: TA100, Metabolic Activation: None, Method: Gas exposure method) is “inactive; negative”; the mutagenic call (Test System: Ames Salmonella typhimurium, Strain/Indicator: TA100, Metabolic Activation: Rat, Liver, S9, Sodium phenobarbital and 5,6-benzoflavone (10%), Method: Gas exposure method) is “inactive; negative”; the mutagenic call (Test System: Ames Salmonella typhimurium, Strain/Indicator: TA1535, Metabolic Activation: None, Method: Gas exposure method) was “inactive; negative”; the mutagenic call (Test System: Ames Salmonella typhimurium, Strain/Indicator: TA1535, Metabolic Activation: Rat, Liver, S9, Sodium phenobarbital and 5,6-benzoflavone (10%), Method: Gas exposure method) was “inactive; negative”; the mutagenic call (Test System: Ames Salmonella typhimurium, Strain/Indicator: TA1537, Metabolic Activation: None, Method: Gas exposure method) was “inactive; negative”; the mutagenic call (Test System: Ames Salmonella typhimurium, Strain/Indicator: TA1537, Metabolic Activation: Rat, Liver, S9, Sodium phenobarbital and 5,6-benzoflavone (10%), Method: Gas exposure method) was “inactive; negative”. Moreover, the mutagenic call runs as follows: (Test System: CHINESE HAMSTER V-79, Strain/Indicator: V-79/8-AZAGUANINE, Metabolic Activation: NONE, Method: SUSPENSION/PLATE) “active; positive”; (Test System: CHINESE HAMSTER V-79, Strain/Indicator: V-79/OUABAIN, Metabolic Activation: NONE, Method: SUSPENSION/PLATE) “inactive; negative”; (Test System: E. coli, Strain/Indicator: WP2/pKM101, Metabolic Activation: None, Method: Gas exposure method) “inactive; negative (two experimental trials)”; (Test System: E. coli, Strain/Indicator: WP2/pKM101, Metabolic Activation: Rat, Liver, S9, Sodium phenobarbital and 5,6-benzoflavone (10%) with glutathione, Method: Gas exposure method) “inactive; negative (two experimental trials)”; (Test System: E. coli, Strain/Indicator: WP2/pKM101, Metabolic Activation: Rat, Liver, S9, Sodium phenobarbital and 5,6-benzoflavone (10%) without glutathione, Method: Gas exposure method) “inactive; negative (two experimental trials)”; (Test System: E. coli, Strain/Indicator: WP2uvrA/pKM101, Metabolic Activation: None, Method: Gas exposure method) “inactive; negative”. Further, the mutagenic call was “inactive; negative” (Test System: E. coli, Strain/Indicator: WP2uvrA/pKM101, Metabolic Activation: Rat, Liver, S9, Sodium phenobarbital and 5,6-benzoflavone (10%), Method: Gas exposure method); “inactive; negative” (Test System: E.COLI, Strain/Indicator: WP2UVRA/PKM101, Metabolic Activation: NONE, Method: GAS EXPOSURE); “active; positive” (Test System: E.COLI, Strain/Indicator: WP2UVRA/PKM101, Metabolic Activation: RAT LIVER S-9, PHENOBARBITOL AND 5,6-BENZOFLAVONE, GLUTATHIONE-SUPPLEMENTED, Method: GAS EXPOSURE); “inactive; negative” (Test System: E.COLI, Strain/Indicator: WP2UVRA/PKM101, Metabolic Activation: RAT LIVER S-9, PHENOBARBITOL AND 5,6-BENZOFLAVONE, Method: GAS EXPOSURE); “inactive; negative” (Test System: MOUSE LYMPHOMA, Strain/Indicator: L5178Y (TK+/TK-), Metabolic Activation: NONE, Method: SUSPENSION/PLATE); “active; positive” (Test System: MOUSE LYMPHOMA, Strain/Indicator: L5178Y (TK+/TK-), Metabolic Activation: RAT, LIVER, S-9, AROCLOR 1254, Method: SUSPENSION/PLATE). Also, where the note is “Test System: UDS MOUSE HEPATOCYTES, Strain/Indicator: THY INCORP, Metabolic Activation: NONE, Method: AUTORADIOGRAPHY”, the mutagenic call is “inactive; negative”.
As to `CC(C)(c1cc(Br)c(O)c(Br)c1)c1cc(Br)c(O)c(Br)c1`, the mutagenic call (Test System: AMES SALMONELLA TYPHIMURIUM, Strain/Indicator: TA98, Metabolic Activation: HAMSTER, LIVER, S-9, AROCLOR 1254 (10%), Method: PREINCUBATION) was “inactive; negative”; the mutagenic call under setting [1] is “inactive; negative”; the mutagenic call (Test System: AMES SALMONELLA TYPHIMURIUM, Strain/Indicator: TA98, Metabolic Activation: RAT, LIVER, S-9, AROCLOR 1254 (10%), Method: PREINCUBATION) is “inactive; negative”; the mutagenic call (Test System: AMES SALMONELLA TYPHIMURIUM, Strain/Indicator: TA100, Metabolic Activation: HAMSTER, LIVER, S-9, AROCLOR 1254 (10%), Method: PREINCUBATION) is “inactive; negative”; the mutagenic call under setting [2] is “inactive; negative”; the mutagenic call (Test System: AMES SALMONELLA TYPHIMURIUM, Strain/Indicator: TA100, Metabolic Activation: RAT, LIVER, S-9, AROCLOR 1254 (10%), Method: PREINCUBATION) was “inactive; negative”. Further, the mutagenic call by setting is: (Test System: AMES SALMONELLA TYPHIMURIUM, Strain/Indicator: TA1535, Metabolic Activation: HAMSTER, LIVER, S-9, AROCLOR 1254 (10%), Method: PREINCUBATION) “inactive; negative”; (Test System: AMES SALMONELLA TYPHIMURIUM, Strain/Indicator: TA1535, Metabolic Activation: NONE, Method: PREINCUBATION) “inactive; negative”; (Test System: AMES SALMONELLA TYPHIMURIUM, Strain/Indicator: TA1535, Metabolic Activation: RAT, LIVER, S-9, AROCLOR 1254 (10%), Method: PREINCUBATION) “inactive; negative”; (Test System: AMES SALMONELLA TYPHIMURIUM, Strain/Indicator: TA1537, Metabolic Activation: HAMSTER, LIVER, S-9, AROCLOR 1254 (10%), Method: PREINCUBATION) “inactive; negative”; (Test System: AMES SALMONELLA TYPHIMURIUM, Strain/Indicator: TA1537, Metabolic Activation: NONE, Method: PREINCUBATION) “inactive; negative”; (Test System: AMES SALMONELLA TYPHIMURIUM, Strain/Indicator: TA1537, Metabolic Activation: RAT, LIVER, S-9, AROCLOR 1254 (10%), Method: PREINCUBATION) “inactive; negative”.
For `COC(=O)c1oc(NO)c(-c2ccccc2)c1-c1ccccc1`, the mutagenic call is “inactive; negative” under setting [1]; “inactive; negative” (Test System: AMES SALMONELLA TYPHIMURIUM, Strain/Indicator: TA98, Metabolic Activation: RAT, LIVER, S-9, AROCLOR, Method: PREINCUBATION); “inactive; negative” under setting [2]; “inactive; negative” (Test System: AMES SALMONELLA TYPHIMURIUM, Strain/Indicator: TA100, Metabolic Activation: RAT, LIVER, S-9, AROCLOR, Method: PREINCUBATION).
